# Measurements published in patent US12344610B2, “APOL1 inhibitors and methods of use” (Maze Therapeutics, Inc., priority 2022, dated 2025).
# pEC50: −log10 of the molar value.
# Tested on: human immortalized podocytes inducibly expressing APOL1 G2
# Experiment: APOL1 G2 podocyte cell rescue assay (Example B4)
# Type: cell-based
# Conditions: Homo sapiens, differentiated human podocytes, doxycycline-induced APOL1 G2, CellTiter-Glo; geometric mean of at least 2 runs; † = single run
# How it was run: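 Differentiated hTERT-immortalized podocytes (clone D10) with doxycycline-inducible C-terminally HiBiT-tagged APOL1 G2, 6,000 cells/well, treated with doxycycline plus 8-point 3-fold compound series (0.4% DMSO) for 95 h at 37 °C. Viability by CellTiter-Glo luminescence; EC50 as geometric mean of ≥2 runs, each in duplicate.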
row,Compound,pEC50
1,"O=C1Nc2ccc(Cl)cc2C12CCN(CCOc1cnc(N3CC(O)C3)nc1)CC2 [Compound 301, 5-chloro-1′-(2-{[2-(3-hydroxyazetidin-1-yl)pyrimidin-5-yl]oxy}ethyl)-1,2-dihydrospiro[indole-3,4′-piperidin]-2-one]",7.17
2,"CC(C)(O)c1ncc(OCCN2CCC3(CC2)C(=O)Nc2ccc(Cl)cc23)cn1 [Compound 305, 5-chloro-1′-(2-{[2-(2-hydroxypropan-2-yl)pyrimidin-5-yl]oxy}ethyl)-1,2-dihydrospiro[indole-3,4′-piperidin]-2-one]",7.82
3,"CC1(O)CN(c2nccc3cc(OCCN4CCC5(CC4)C(=O)Nc4ccc(Cl)cc45)cnc23)C1 [Compound 306, 5-chloro-1′-(2-{[8-(3-hydroxy-3-methylazetidin-1-yl)-1,7-naphthyridin-3-yl]oxy}ethyl)-1,2-dihydrospiro[indole-3,4′-piperidin]-2-one]",8.71
4,"O=C1Nc2ccc(Cl)cc2C12CCN(CCOc1cnc3c(N4CC(O)C4)nccc3c1)CC2 [Compound 314, 5-chloro-1′-(2-{[8-(3-hydroxyazetidin-1-yl)-1,7-naphthyridin-3-yl]oxy}ethyl)-1,2-dihydrospiro[indole-3,4′-piperidin]-2-one]",8.34
